{"source": "paper PMC7766697", "about": "“Toxicological Screening of Four Bioactive Citroflavonoids: In Vitro, In Vivo, and In Silico Approaches” (Molecules, 2020)", "key": {"Wistar rats [1]": {"system": "Wistar rats", "details": "rats; for ALB (albumin) / ALB/GL Ratio / ALT / AST / DB (direct bilirubin) / GL (globulin) / GLU (glucose) / IB (indirect bilirubin) / TB (total bilirubin) / TP (total protein): after 14 days, plasma"}, "VERO cells": {"system": "VERO cells", "assay": "MTT-based cytotoxicity assay in VERO cells", "type": "cell-based, green Monkey", "details": "48 h, 125 to 750 µg/mL (QRT effect at 250–750 µg/mL)", "description": "(§1) VERO and MDCK cell lines were acquired from American Type Culture Collection (ATCC, Manassas, VA, USA). […] In vitro cytotoxicity assay was performed on Madin-Darby Canine Kidney Epithelial Cells (MDCK) and green Monkey Kidney Cells (VERO) by MTT-based assay. Briefly, cells were seeded in 96-well plates at a density of 2.5 × 10^3 cells/well. […] The absorbance was measured after 45 min using a microplate reader (Multiskan Asent®) at a wavelength of 550 nm. The criteria for categorizing cytotoxicity against MDCK and VERO cells are based on the U.S. National Cancer Institute (NCI). The criteria comprise as follow: […] All results were expressed as mean ± standard error. The results from the in vivo and in vitro experiments were analyzed using software Origin® 8.0. […] The IC50 (half inhibitory concentration) values were calculated in Origin software®, (Northampton, MA, USA) and one-way ANOVA analysis was compared with cisplatin as the control."}, "Wistar rats [2]": {"system": "Wistar rats", "type": "in vivo", "details": "rats, after 14 days", "description": "(§2) Rats used for this experiment were fasted for 8 h and were organized into two groups of three rats for each dose and each flavonoid. Likewise, the control group received isotonic 0.9% sodium chloride solution (dose: 5 mL/kg). All rats were closely observed for toxic symptoms and behavioral changes (sedation, hyperactivity, writhing, pruritus, feeding and drinking habits, general morphological changes, and bite legs) for 30 min and periodically 24 h post-administration. Animals were observed daily (14 days) and mortality rate recorded. A LD50 was estimated according to criteria of OECD guide 423.\nThe rats’ body weight in each group was determined and recorded before the treatment initiation and after 14 days. Changes in the body weight at the end of the 14 days were calculated. Once observation time was completed and to detect any adverse effect, blood samples were collected by cardiac puncture after the previous fasting of 8 h. For this purpose, rats were anesthetized by intraperitoneally 50 mg/kg sodium pentobarbital. The liver was carefully extracted, rinsed in normal saline, drained on blotting paper, and carefully examined for tissue lesions. In addition, organ weight was determined.\nRat blood samples were analyzed by a hematology auto-analyzer system (Sysmex XS-1000i®, SYSMEX®, Oak Ridge, TN, USA). The parameters quantified on this stage were: blood count-packed cell volume (PCV), red blood cell (RBC) count, hemoglobin (Hb), platelet count, white blood cell (WBC) count, mean cell hemoglobin concentration (MCHC), mean red cell volume (MCV), mean cell hemoglobin (MCH), prothrombin time (PT), and activated partial thromboplastin time (aPTT)."}, "Sprague-Dawley rats": {"system": "Sprague-Dawley rats", "parameters": "method as in PMID 28662177", "details": "sub-chronic oral, 13 weeks, cited from earlier work"}, "MDCK cells": {"system": "MDCK cells", "assay": "MTT-based cytotoxicity assay in MDCK cells", "type": "cell-based, Canine", "details": "48 h, 125 to 750 µg/mL (QRT effect at 250 and 500 µg/mL)", "description": "as §1"}, "Sprague Dawley rats": {"system": "Sprague Dawley rats", "parameters": "method as in PMID 30991075", "details": "early report; cited from earlier work"}, "Wistar rats [3]": {"system": "Wistar rats", "assay": "Acute oral toxicity, OECD Test No. 423 (mortality, signs, LD50, body weight)", "type": "in vivo", "details": "oral 300 mg/kg, days 7 and 10", "description": "Female Wistar rats (250 g b.w.) were used. These animals were obtained from Bioterium from División de Ciencias de la Salud at the Universidad de Quintana Roo. They were maintained under standard environmental conditions (22 ± 3 °C, 12 h/12 h light/dark cycle), and free access to standard rodent diet and water ad libitum. All animal procedures were conducted under our Federal Regulations for Animal Experimentation and Care and were approved by the Institutional Animal Care and Use Committee of the “Universidad Juárez Autónoma de Tabasco” university (Code:2017-001, Approved: October 2017). Rats were acclimatized for 1 week before the start of experimental procedures.\nThe half lethal dose (LD50) was estimated using the fixed-dose method described in OECD Guidelines for the Testing of Chemicals (Test No. 423: Acute Oral Toxicity-Class Method; OECD, 2001). […] This method allowed a step-by-step assay according to the chosen dose to begin the experiment. Subsequently, depending on the presence or absence of mortality, the decision to continue within the next step is taken, so fewer experimental animals should be used.\nas §2\nThe rats’ body weight in each group was determined and recorded before the treatment initiation and after 14 days. Changes in the body weight at the end of the 14 days were calculated. Once observation time was completed and to detect any adverse effect, blood samples were collected by cardiac puncture after the previous fasting of 8 h. […] In addition, organ weight was determined."}}, "note": "Like-named read-outs stand apart in the source and are kept apart here."}
{"molecule": "COc1ccc([C@@H]2CC(=O)c3c(O)cc(O[C@@H]4O[C@H](CO[C@@H]5O[C@@H](C)[C@H](O)[C@@H](O)[C@H]5O)[C@@H](O)[C@H](O)[C@H]4O)cc3O2)cc1O", "note": "[HESP, hesperidin]", "values": [{"measurement": "ALB (albumin)", "setting": "Wistar rats [1]; oral 300 mg/kg", "result": "4.15 ± 0.20", "unit": "g/dL"}, {"measurement": "ALB/GL Ratio", "setting": "Wistar rats [1]; oral 300 mg/kg", "result": "2.36 ± 0.101"}, {"measurement": "ALT", "setting": "Wistar rats [1]; oral 300 mg/kg", "result": "33.78 ± 1.30", "unit": "IU/L"}, {"measurement": "AST", "setting": "Wistar rats [1]; oral 300 mg/kg", "result": "126.00 ± 13.18", "unit": "IU/L"}, {"measurement": "DB (direct bilirubin)", "setting": "Wistar rats [1]; oral 300 mg/kg", "result": "0.020 ± 0.005", "unit": "mg/dL"}, {"measurement": "GL (globulin)", "setting": "Wistar rats [1]; oral 300 mg/kg", "result": "1.76 ± 0.069", "unit": "g/dL"}, {"measurement": "GLU (glucose)", "setting": "Wistar rats [1]; oral 300 mg/kg", "result": "155.33 ± 18.71", "unit": "mg/dL"}, {"measurement": "IB (indirect bilirubin)", "setting": "Wistar rats [1]; oral 300 mg/kg", "result": "0.029 ± 0.003", "unit": "mg/dL"}, {"measurement": "TB (total bilirubin)", "setting": "Wistar rats [1]; oral 300 mg/kg", "result": "0.051 ± 0.002", "unit": "mg/dL"}, {"measurement": "TP (total protein)", "setting": "Wistar rats [1]; oral 300 mg/kg", "result": "5.91 ± 0.25", "unit": "g/dL"}, {"measurement": "ALB (albumin)", "setting": "Wistar rats [1]; oral 2000 mg/kg", "result": "4.20 ± 0.22", "unit": "g/dL"}, {"measurement": "ALB/GL Ratio", "setting": "Wistar rats [1]; oral 2000 mg/kg", "result": "2.38 ± 0.270"}, {"measurement": "ALT", "setting": "Wistar rats [1]; oral 2000 mg/kg", "result": "41.19 ± 2.83", "unit": "IU/L"}, {"measurement": "AST", "setting": "Wistar rats [1]; oral 2000 mg/kg", "result": "226.65 ± 44.80", "unit": "IU/L"}, {"measurement": "DB (direct bilirubin)", "setting": "Wistar rats [1]; oral 2000 mg/kg", "result": "0.018 ± 0.005", "unit": "mg/dL"}, {"measurement": "GL (globulin)", "setting": "Wistar rats [1]; oral 2000 mg/kg", "result": "1.80 ± 0.108", "unit": "g/dL"}, {"measurement": "GLU (glucose)", "setting": "Wistar rats [1]; oral 2000 mg/kg", "result": "192.06 ± 12.73", "unit": "mg/dL"}, {"measurement": "IB (indirect bilirubin)", "setting": "Wistar rats [1]; oral 2000 mg/kg", "result": "0.046 ± 0.010", "unit": "mg/dL"}, {"measurement": "TB (total bilirubin)", "setting": "Wistar rats [1]; oral 2000 mg/kg", "result": "0.060 ± 0.06", "unit": "mg/dL"}, {"measurement": "TP (total protein)", "setting": "Wistar rats [1]; oral 2000 mg/kg", "result": "5.99 ± 0.11", "unit": "g/dL"}, {"measurement": "glucose values vs control", "setting": "Wistar rats [1]; oral, doses tested, more evident at NAR 300 and 2000 mg/kg and NARGE 300 mg/kg", "result": "slightly amended glucose values"}, {"measurement": "percentage viability / growth of cells", "setting": "VERO cells", "result": "did not change the percentage of growth"}, {"measurement": "APTT", "setting": "Wistar rats [2]; oral 300 mg/kg", "result": "28.53 ± 4.31", "unit": "s"}, {"measurement": "Basophils", "setting": "Wistar rats [2]; oral 300 mg/kg", "result": "2.13±1.74 103/µL"}, {"measurement": "Eosinophils", "setting": "Wistar rats [2]; oral 300 mg/kg", "result": "3.60±0.76 103/µL"}, {"measurement": "Erythrocytes", "setting": "Wistar rats [2]; oral 300 mg/kg", "result": "7.90±0.30 106/µL"}, {"measurement": "Hb", "setting": "Wistar rats [2]; oral 300 mg/kg", "result": "14.20 ± 0.37", "unit": "g/dL"}, {"measurement": "Hto", "setting": "Wistar rats [2]; oral 300 mg/kg", "result": "44.96±0.91", "unit": "%"}, {"measurement": "Leukocytes", "setting": "Wistar rats [2]; oral 300 mg/kg", "result": "4.50±0.89 103/µL"}, {"measurement": "Lymphocytes", "setting": "Wistar rats [2]; oral 300 mg/kg", "result": "72.27±4.36 103/µL"}, {"measurement": "MCH", "setting": "Wistar rats [2]; oral 300 mg/kg", "result": "18.00 ± 0.24", "unit": "pg"}, {"measurement": "MCHC", "setting": "Wistar rats [2]; oral 300 mg/kg", "result": "31.56 ± 0.64", "unit": "g/dL"}, {"measurement": "MCV", "setting": "Wistar rats [2]; oral 300 mg/kg", "result": "57.06 ± 1.87", "unit": "fL"}, {"measurement": "Monocytes", "setting": "Wistar rats [2]; oral 300 mg/kg", "result": "7.07±1.50 103/µL"}, {"measurement": "PT", "setting": "Wistar rats [2]; oral 300 mg/kg", "result": "17.86 ± 0.40", "unit": "s"}, {"measurement": "Platelets", "setting": "Wistar rats [2]; oral 300 mg/kg", "result": "720.00±125.23 105/µL"}, {"measurement": "RBCDW", "setting": "Wistar rats [2]; oral 300 mg/kg", "result": "17.00±0.61", "unit": "%"}, {"measurement": "APTT", "setting": "Wistar rats [2]; oral 2000 mg/kg", "result": "32.53 ± 3.93", "unit": "s"}, {"measurement": "Basophils", "setting": "Wistar rats [2]; oral 2000 mg/kg", "result": "0.00±0.00 103/µL"}, {"measurement": "Eosinophils", "setting": "Wistar rats [2]; oral 2000 mg/kg", "result": "3.67±0.54 103/µL"}, {"measurement": "Erythrocytes", "setting": "Wistar rats [2]; oral 2000 mg/kg", "result": "8.04±0.22 106/µL"}, {"measurement": "Hb", "setting": "Wistar rats [2]; oral 2000 mg/kg", "result": "14.20 ± 0.36", "unit": "g/dL"}, {"measurement": "Hto", "setting": "Wistar rats [2]; oral 2000 mg/kg", "result": "43.26±0.89", "unit": "%"}, {"measurement": "Leukocytes", "setting": "Wistar rats [2]; oral 2000 mg/kg", "result": "6.68±0.72 103/µL"}, {"measurement": "Lymphocytes", "setting": "Wistar rats [2]; oral 2000 mg/kg", "result": "77.33±3.24 103/µL"}, {"measurement": "MCH", "setting": "Wistar rats [2]; oral 2000 mg/kg", "result": "17.70 ± 0.24", "unit": "pg"}, {"measurement": "MCHC", "setting": "Wistar rats [2]; oral 2000 mg/kg", "result": "32.83 ± 0.35", "unit": "g/dL"}, {"measurement": "MCV", "setting": "Wistar rats [2]; oral 2000 mg/kg", "result": "53.86 ± 0.37", "unit": "fL"}, {"measurement": "Monocytes", "setting": "Wistar rats [2]; oral 2000 mg/kg", "result": "7.13±1.15 103/µL"}, {"measurement": "PT", "setting": "Wistar rats [2]; oral 2000 mg/kg", "result": "17.73 ± 0.50", "unit": "s"}, {"measurement": "Platelets", "setting": "Wistar rats [2]; oral 2000 mg/kg", "result": "628.66±28.31 105/µL"}, {"measurement": "RBCDW", "setting": "Wistar rats [2]; oral 2000 mg/kg", "result": "17.83±1.50", "unit": "%"}, {"measurement": "weight gain", "setting": "Sprague-Dawley rats; 1000 mg/kg", "result": "did at 1000 mg/kg"}, {"measurement": "weight gain", "setting": "Sprague-Dawley rats; 250 and 500 mg/kg", "result": "did not modify weight gain"}, {"measurement": "percentage viability / growth of cells", "setting": "MDCK cells", "result": "did not change the percentage of growth"}, {"measurement": "acute oral LD50", "setting": "Sprague Dawley rats", "result": 4837.5, "unit": "mg/kg"}, {"measurement": "weight gain vs control", "setting": "Wistar rats [3]", "result": "considerable weight gain differences"}]}
